From paper PMC8539346, “Synthesis and Evaluation of a Dimeric RGD Peptide as a Preliminary Study for Radiotheranostics with Radiohalogens” (Molecules, 2021)
Where two headings read alike, the source gives them in different places. Values belong to the molecule of their own block, whether it stands above or below them.

Assays:
[1] = tested on: U-87 MG tumor bearing mice; conditions: mouse
Protocol: A comparison of the biodistribution experiments in U-87 MG tumor mice between [^125I]6 and [^125I]c[RGDf(4-I)K] is shown in Figure 3 and Table S1. [^125I]6 was highly accumulated in the tumor based on the results of the in vitro assay. […] (2.93 ± 0.08% ID/g). The accumulation of [^125I]6 in the liver and intestines also tended to be higher than that of [^125I]c[RGDf(4-I)K]. Meanwhile, it is known that the radioactive accumulation in the thyroid gland and stomach is an index of deiodination of radioiodine labeled probes.
Experiments with animals were conducted in strict accordance with the Guidelines for the Care and Use of Laboratory Animals of Kanazawa University. The experimental protocols were approved by the Committee on Animal Experimentation of Kanazawa University. The animals were housed with free access to food and water at 23 °C with a 12 h alternating light/dark schedule. We used a U-87 MG cell line because it was reported that the U-87 MG highly expresses αvβ3 integrin [26]. […] The radioactivity counts of ^125I was determined with an auto-well gamma counter (ARC-7010, Hitachi, Ltd., Tokyo, Japan) and corrected for background radiation and physical decay during counting. […]
Table S1. Biodistribution of radioactivity after intravenous injection of […]
Expressed as % injected dose per gram. […]
‡ Expressed as % injected dose.
Significance was determined by paired Student’s t test. […]

[2] = In vitro stability in PBS(−); format: physicochemical; conditions: PBS(−) pH 7.4, 37 °C, 24 h, 37 kBq tracer in 100 µL, RP-HPLC; mean ± SD for three samples
Protocol: An in vitro stability experiment of [^125I]6 in PBS(−) (pH 7.4) solution was performed. After incubation at 37 °C for 24 h, 90.8 ± 0.7% (mean ± SD for three samples) of its radioactivity remained intact.
To evaluate the stability of [^125I]6 in PBS(−), 10 µL of each tracer (37 kBq) was added to 90 µL of PBS(−) (pH 7.4), and the solutions were incubated at 37 °C for 24 h. After incubation, the samples were drawn, and the radioactivity was analyzed by RP-HPLC.

[3] = format: physicochemical
Protocol: (§1) An experimental Log p value of [^125I]6 was −2.33 ± 0.04. The value was higher than that of the monomeric radioiodine-labeled RGD peptide [^125I]c[RGDf(4-I)K] (−3.04 ± 0.46) from our previous study.
The partition coefficient of [^125I]6 was measured as described previously. The radioactivity in each phase was measured with an auto-well gamma counter. The partition coefficient was determined by calculating the ratio of 1-octanol to the buffer and was expressed as a common logarithm (log P).

αvβ3 integrin [4] = target: T1, αvβ3 integrin (Homo sapiens, UniProt P05106+P06756); experiment: αvβ3 integrin competitive binding assay with U-87 MG cells, radioligand [^125I]c[RGDy(3-I)V]; conditions: competitive inhibition of [^125I]c[RGDy(3-I)V] binding, mean ± SD for three independent experiments
T1 construct: host or cells: U-87 MG glioblastoma cells
Protocol: The affinity of 6 and E[c(RGDfK)]2, a dimer RGD peptide without iodine, for αvβ3 integrin was determined via a competitive binding assay with U-87 MG cells. Binding of the radioligand [^125I]c[RGDy(3-I)V] to αvβ3 integrin was inhibited by 6 and E[c(RGDfK)]2 in a concentration-dependent manner.
Binding affinities of synthesized peptides E[c(RGDfK)]2 and 6 for αvβ3 integrin were evaluated by competitive inhibition between the peptides and [^125I]c[RGDy(3-I)V], which was prepared by Fmoc solid-phase synthesis and following ^125I-labeling with chloramine-T method, to αvβ3 integrin according to a previously reported procedure. The peptides’ half maximal inhibitory concentration (IC50) values were calculated by curve fitting with nonlinear regression using GraphPad Prism 8.4.3 (GraphPad Software Inc., San Diego, CA, USA). Each data point is the average of four determinations, and IC50 values were expressed as mean ± standard deviation (SD) from three independent experiments.
Figure 2 αvβ3 Integrin binding assay. Representative displacement curves of the competitive binding of [^125I]c[RGDy(3-I)V] to αvβ3 integrin on U-87 MG cells with E[c(RGDfK)]2 and 6. Error bars represent SD.

[5] = cited from earlier work
Source text: as §1

αvβ3 integrin [6] = target: T1, αvβ3 integrin; conditions: monomer RGD peptide; cited from earlier work
Protocol: The binding affinity of 6 for αvβ3 integrin (IC50: 1.2 ± 0.5 nM) was higher than that of c[RGDf(4-I)K] […] It was reported that IC50 values of dimeric RGD peptides in the αvβ3 integrin competitive binding assay were an order lower than those of original monomeric RGD peptides. Thus, the IC50 value of dimerizing peptide 6 was consistent with those described in previous studies.

- in vivo deiodination (radioactivity in neck containing thyroid glands and stomach) [1]: hardly occurred
- radioactivity remained intact [2]: 90.8 ± 0.7%
- Log p (partition coefficient) [3]: −2.33 ± 0.04
Molecule: E[c(RGDfK)]{[^125I]c[RGDf(4-I)K]}2 [[^125I]6]

- IC50 (αvβ3 integrin [4]): 0.0012 ± 0.0005 µM
Molecule: N=C(N)NCCC[C@@H]1NC(=O)[C@H](CCCCNC(=O)CC[C@H](N)C(=O)NCCCC[C@@H]2NC(=O)[C@@H](Cc3ccc(I)cc3)NC(=O)[C@H](CC(=O)O)NC(=O)CNC(=O)[C@H](CCCNC(=N)N)NC2=O)NC(=O)[C@@H](Cc2ccccc2)NC(=O)[C@H](CC(=O)O)NC(=O)CNC1=O [Compound 6, E[c(RGDfK)]{c[RGDf(4-I)K]}]

Molecule: [^125I]c[RGDf(4-I)K]
- Log p (partition coefficient) [5]: −3.04 ± 0.46

Molecule: c[RGDf(4-I)K]
- IC50 (αvβ3 integrin [6]): 0.0232 ± 0.0172 µM
